Experimental data from ChEMBL document CHEMBL5385923, “HPPO-Derived Meroterpenoids from the Marine-Derived Fungus Penicillium sp. SCSIO 41691” (J Nat Prod, 2024).

Columns and labels:
NCI-H1975 = test: Cytotoxicity against human NCI-H1975 cells assessed as inhibition of cell growth incubated for 24 hrs by CCK-8 assay; assay type: functional, cell-based; details: NCI-H1975, 24 h
RAW264.7 [1] = test: Antiinflammatory activity in LPS induced mouse RAW264.7 cells assessed as inhibition of NO production at 25 uM pretreated for 2 hrs followed by LPS stimulation and measured after 24 hrs by Griess reagent based assay relative to control; assay type: functional; details: time 26 hrs
[2] = Cytotoxicity against mouse RAW264.7 cells assessed as reduction in cell viability incubated for 2 hrs by MTT assay; assay type: toxicity, cell-based
RAW264.7 [3] = test: Antiinflammatory activity in LPS induced mouse RAW264.7 cells assessed as inhibition of NO production pretreated for 2 hrs followed by LPS stimulation and measured after 24 hrs by Griess reagent based assay; assay type: functional, cell-based

IC50 (RAW264.7 [3]) [µM] | SMILES | IC50 (NCI-H1975) [µM] | inhibition at 25 µM (RAW264.7 [1]) [%] | CC50 at 2 h [2] [µM]
 | COc1ccc(-c2cc3c(c(=O)o2)C[C@H]2[C@@](C)(CC[C@@]45O[C@@](O)(OC4(C)C)[C@H](O)C[C@]25C)O3)cc1 | > 80 | 0 | 
21 | COc1ccc(-c2cc3c(c(=O)o2)C[C@]2(O)[C@@]45CO[C@@H](CC4=O)C(C)(C)[C@]5(O)CC[C@@]2(C)O3)cc1OC | > 80 | 62 | > 50
 | COc1ccc(-c2cc3c(c(=O)o2)C[C@]24O[C@]25[C@H](C)C[C@@H](O)C(C)(C)[C@]5(O)CC[C@@]4(C)O3)cc1 | > 80 | 6.3 | 
 | COc1ccc(-c2cc3c(c(=O)o2)C[C@]2(O)[C@@]4(C)[C@H](O)C[C@@H](OC(C)=O)C(C)(C)[C@]4(O)CC[C@@]2(C)O3)cc1 | > 80 | 2.5 | 
 | COc1cc(-c2cc3c(c(=O)o2)C[C@]2(O)[C@@]45CO[C@@H](CC4=O)C(C)(C)[C@]5(O)CC[C@@]2(C)O3)cc2c1OCO2 | 15 | 11 | 
 | COc1cc(-c2cc3c(c(=O)o2)C[C@]2(O)[C@@]45CO[C@@H](CC4=O)C(C)(C)[C@]5(O)CC[C@@]2(C)O3)cc(OC)c1OC | > 80 | 22 | 
 | COc1ccc(-c2cc3c(c(=O)o2)C[C@H]2[C@@](C)(CC[C@@]4(O)C(C)(C)C(=O)C=C[C@]24C)O3)cc1 | > 80 | 35 | 
 | COc1ccc(-c2cc3c(c(=O)o2)C[C@]2(O)[C@@]45O[C@]4(CC[C@@]2(C)O3)C(C)(C)[C@H](O)C[C@H]5C)cc1 | 67 | 32 | 
 | COc1ccc(-c2cc3c(c(=O)o2)C[C@H]2[C@@](C)(CC[C@@]4(O)C(C)(C)OC(=O)[C@H](O)C[C@]24C)O3)cc1 | > 80 | 7.6 | 
24 | COc1ccc2c(c1)c(CC(=O)O)c(C)n2C(=O)c1ccc(Cl)cc1 [INDOMETHACIN] |  | 57 | > 50
